{
  "source": "patent US4861768A",
  "about": "“2 β-substituted thiomethylpenicillin derivatives and their preparation and use” (Taiho Pharmaceutical Company, Limited, priority 1986, dated 1989)",
  "key": {"[1]": {"biological_target": "penicillinase (β-lactamase) from Bacillus SP", "assay": "Test for β-lactamase inhibitory activity (microiodometry, penicillin G as substrate)", "type": "biochemical", "conditions": "read-out: 50% Inhibitory Concentration", "protocol": "The inhibitory activity of each compound against penicillinase (β-lactamase) from Bacillus SP was determined by microiodometry [Tanpakushitsu Kakusan Koso (Proteins, Nucleic Acids and Enzymes), vol. 23, No.5, pp 391-400 (1978)] using penicillin G as a substrate."}, "[2]": {"test_system": "Klebsiella pneumoniae 101 L (TEM1)", "assay": "MIC of piperacillin alone or with compound, Klebsiella pneumoniae 101 L (TEM1)", "type": "cell-based", "conditions": "20 h, read-out: MIC, Piperacillin alone", "protocol": "(§1) (1) The minimal inhibitory concentrations (MIC) of piperacillin in the presence of 10 μg/ml of compounds of the present invention against various bacteria were determined by the MIC assay method of Japan Society of Chemotherapy (Chemotherapy 29, No. 1, pp. 76-79, 1981). The MIC values of various compounds according to the present invention and of piperacillin, as used singly, were also determined. Each test strain was grown in Mueller Hinton Broth (Difco) and used for inoculation after dilution to a concentration of 10^6 CFU/ml. The assay media (Mueller Hinton Broth) containing piperacillin and the compound according to the present invention in a series of concentrations were inoculated with the test strain and incubated at 37° C. for 20 hours. The minimum concentration at which no more than 5 colonies were observed was determined. […] All the test strains used in the above assays were β-lactamase producers."}, "Echerichia coli SHV 1": {"test_system": "Echerichia coli SHV 1", "assay": "MIC of piperacillin alone or with compound, Echerichia coli SHV 1", "type": "cell-based", "conditions": "20 h, read-out: MIC, Piperacillin alone", "protocol": "as §1"}, "Morganella morganii 119": {"test_system": "Morganella morganii 119", "assay": "MIC of piperacillin alone or with compound, Morganella morganii 119", "type": "cell-based", "conditions": "alone, Mueller Hinton Broth, 10^6 CFU/ml, 37° C., 20 hours", "protocol": "as §1"}, "[3]": {"test_system": "Staphylococcus aureus 54 K", "assay": "MIC of piperacillin alone or with compound, Staphylococcus aureus 54 K", "type": "cell-based", "conditions": "alone, Mueller Hinton Broth, 10^6 CFU/ml, 37° C., 20 hours", "protocol": "as §1"}, "Acinetobacter 450 L": {"test_system": "Acinetobacter 450 L", "assay": "MIC of piperacillin alone or with compound, Acinetobacter 450 L", "type": "cell-based", "conditions": "alone, Mueller Hinton Broth, 10^6 CFU/ml, 37° C., 20 hours", "protocol": "as §1"}, "[4]": {"test_system": "Serratia marcescens 200 L (TEM + C)", "assay": "MIC of piperacillin alone or with compound, Serratia marcescens 200 L (TEM + C)", "type": "cell-based", "conditions": "alone, Mueller Hinton Broth, 10^6 CFU/ml, 37° C., 20 hours", "protocol": "as §1"}, "[5]": {"test_system": "Pseudomonas aeruginosa PSE 3", "assay": "MIC of piperacillin alone or with compound, Pseudomonas aeruginosa PSE 3", "type": "cell-based", "conditions": "PSE3, alone, Mueller Hinton Broth, 10^6 CFU/ml, 37° C., 20 hours", "protocol": "as §1"}},
  "data": [
    {"smiles": "CC1(CSC#N)C(C(=O)O)N2C(=O)CC2S1(=O)=O", "note": "(stereo not drawn) [Compound 26, sodium 2α-methyl-2β-thiocyanatomethylpenam-3α-carboxylate 1,1-dioxide]", "values": [
      {"measurement": "IC50", "setting": "[1]", "value": 9800, "unit": "nM"}
    ]},
    {"smiles": "Cn1nnnc1SCC1(C)C(C(=O)O)N2C(=O)CC2S1(=O)=O", "note": "(stereo not drawn) [Compound 27, sodium 2α-methyl-2β-(1-methyl-5-tetrazolyl)thiomethylpenam-3α-carboxylate 1,1-dioxide]", "values": [
      {"measurement": "IC50", "setting": "[1]", "value": 870, "unit": "nM"}
    ]},
    {"smiles": "CC1(CSc2nnnn2-c2ccccc2)C(C(=O)O)N2C(=O)CC2S1(=O)=O", "note": "(stereo not drawn) [Compound 28, sodium 2α-methyl-2β-(1-phenyl-5-tetrazolyl)thiomethylpenam-3α-carboxylate 1,1-dioxide]", "values": [
      {"measurement": "IC50", "setting": "[1]", "value": 1000, "unit": "nM"}
    ]},
    {"smiles": "CC1(CSc2nnnn2-c2ccc(Cl)cc2)C(C(=O)O)N2C(=O)CC2S1(=O)=O", "note": "(stereo not drawn) [Compound 29, sodium 2β-(1-p-chlorophenyl-5-tetrazolylthio)methyl-2α-methylpenam-3α-carboxylate 1,1-dioxide]", "values": [
      {"measurement": "IC50", "setting": "[1]", "value": 480, "unit": "nM"}
    ]},
    {"smiles": "COc1ccc(-n2nnnc2SCC2(C)C(C(=O)O)N3C(=O)CC3S2(=O)=O)cc1", "note": "(stereo not drawn) [Compound 30, sodium 2β-(1-p-methoxyphenyl-5-tetrazolylthio)methyl-2α-methylpenam-3α-carboxylate 1,1-dioxide]", "values": [
      {"measurement": "IC50", "setting": "[1]", "value": 750, "unit": "nM"}
    ]},
    {"smiles": "CC1(CSc2nnnn2CCO)C(C(=O)O)N2C(=O)CC2S1(=O)=O", "note": "(stereo not drawn) [Compound 31, sodium 2β-[1-(2'-hydroxyethyl)-5-tetrazolylthio]methyl-2α-methylpenam-3α-carboxylate 1,1-dioxide]", "values": [
      {"measurement": "IC50", "setting": "[1]", "value": 1820, "unit": "nM"}
    ]},
    {"smiles": "CCN1CCN(C(=O)N[C@@H](C(=O)N[C@@H]2C(=O)N3[C@@H]2SC(C)(C)[C@@H]3C(=O)O)c2ccccc2)C(=O)C1=O", "note": "[Piperacillin, piperacillin]", "values": [
      {"measurement": "MIC", "setting": "[2]", "value": 200, "unit": "µg/mL"},
      {"measurement": "MIC", "setting": "Echerichia coli SHV 1", "value": 12.5, "unit": "µg/mL"},
      {"measurement": "MIC", "setting": "Morganella morganii 119", "value": 25, "unit": "µg/mL"},
      {"measurement": "MIC", "setting": "[3]", "value": 6.25, "unit": "µg/mL"},
      {"measurement": "MIC", "setting": "Acinetobacter 450 L", "value": 200, "unit": "µg/mL"},
      {"measurement": "MIC", "setting": "[4]", "value": 25, "unit": "µg/mL"},
      {"measurement": "MIC", "setting": "[5]", "value": 50, "unit": "µg/mL"}
    ]}
  ]
}
